Consider 18 compounds from US20250171432A1, “COMPOUNDS AND METHODS OF USE” (Tango Therapeutics, Inc., priority 2022, published 2025).

Holding throughout (format): cell-based
Assay [1] has as its system SDMA (PRMT5 activity) in HAP1 MTAP-intact cell line. Put plainly: SDMA in-cell western assay, HAP1 MTAP-intact. The settings on record: SDMA in-cell western, HAP1 MTAP-intact cells, 24 hours compound incubation.
Assay [2] relates to SDMA (PRMT5 activity) in HAP1 MTAP-deleted cell line. Put plainly: SDMA in-cell western assay, HAP1 MTAP-deleted. The settings on record: for IC50 / IC90: SDMA in-cell western, HAP1 MTAP-deleted cells, 24 hours compound incubation; for Hap1 MTAP intact/deleted ratio: ratio of SDMA IC50 in HAP1 MTAP-intact to HAP1 MTAP-deleted cell line.
Assay [3] relates to HAP1 MTAP-deleted cell line. Briefly: Viability assay (CellTiter-Glo), HAP1 MTAP-deleted. The conditions noted are these: HAP1 MTAP-deleted cells, 7 days. The method in brief: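 HAP1 MTAP-deleted and MTAP-intact cells seeded, then dosed next day (n=3, 0.2% DMSO) and grown 7 days. Viability by CellTiter-Glo luminescence, expressed as % of DMSO control per cell line.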
Background: Cellular ATP, detected with luciferase, serves as a proxy for viable cell number.

SMILES strings stand for the structures.

As usually defined, the IC50 is the midpoint of a concentration-inhibition curve. Low values mean inhibition by little substance, high ones a need for much substance. One may read the IC90 as the point of the concentration-response curve where the effect stands at 90%. Read a low IC90 as an effect from little substance. As to `COc1ncc(NC(=O)C(=O)N2C[C@@H](C)CC[C@@H]2c2ccc3sc(CC(C)N4CCCC4)nc3c2)cc1C(N)=O` (mixture of isomers) [Compound 57, 2-methoxy-5-(2-((2R,5S)-5-methyl-2-(2-(2-(pyrrolidin-1-yl)propyl)benzo[d]thiazol-5-yl)piperidin-1-yl)-2-oxoacetamido)nicotinamide], the IC50 is above 50 nM in assay [1] (Homo sapiens, HAP1, 24 h); below 5 nM in assay [2] (Homo sapiens); below 100 nM in assay [3] (Homo sapiens, 168 h). For the same compound, in assay [2] (Homo sapiens), the IC90 is below 75 nM. Moreover, the “Hap1 MTAP intact/deleted ratio” value in assay [2] is recorded as “A (“A” indicates an IC50 ratio greater than or equal to 30 fold)”.
The corresponding values for `CCc1cc(NC(=O)C(=O)N2C[C@@H](C)CC[C@@H]2c2ccc3cn([C@H]4CCN(C)C[C@H]4C)nc3c2)cnc1N` [Compound 42] are above 50 nM, below 5 nM, below 100 nM, below 75 nM and “B (“B” indicates an IC50 ratio greater than or equal to 15 fold but lower than 30 fold)”.
The corresponding values for `CCc1cc(NC(=O)C(=O)N2C[C@@H](C)CC[C@@H]2c2ccc3nn([C@H]4CCN(C)C(C)(C)C4)cc3c2)cnc1N` [Compound 44] are 5 to 50 nM, below 5 nM, below 100 nM, below 75 nM and “B (“B” indicates an IC50 ratio greater than or equal to 15 fold but lower than 30 fold)”.
Consider `CCc1cc(NC(=O)C(=O)N2C[C@@H](C)CC[C@@H]2c2ccc3sc(C[C@H](C)N(C)C)nc3c2)cnc1N` [Compound 55, N-(6-amino-5-ethylpyridin-3-yl)-2-((2R,5S)-2-(2-((S)-2-(dimethylamino)propyl)benzo[d]thiazol-5-yl)-5-methylpiperidin-1-yl)-2-oxoacetamide], for which the IC50 in assay [1] (Homo sapiens, HAP1, 24 h) was 5 to 50 nM; in assay [2] (Homo sapiens), below 5 nM; in assay [3] (Homo sapiens, 168 h) it was below 100 nM. Moreover, the IC90 in assay [2] (Homo sapiens) was below 75 nM. Besides, in assay [2], the “Hap1 MTAP intact/deleted ratio” value was “B (“B” indicates an IC50 ratio greater than or equal to 15 fold but lower than 30 fold)”.
In the case of `C[C@H]1CC[C@H](c2ccc3sc(C4CCN(C)C(C)(C)C4)nc3c2)N(C(=O)C(=O)Nc2cnc(N)c(C3COC3)c2)C1` (single isomer, unassigned) [Compound 1], the results for the IC50 in assay [1], in assay [2] and in assay [3] were 5 to 50 nM, below 5 nM and below 100 nM, respectively. This compound also registered a concentration for an effect of 90% (IC90) in assay [2] below 75 nM. In addition, the “Hap1 MTAP intact/deleted ratio” value in assay [2] was “C (“C” indicates an IC50 ratio of less than 15 fold)”.
`CCc1cc(NC(=O)C(=O)N2C[C@@H](C)CC[C@@H]2c2ccc3c(c2)OC2(CCN(C)CC2)O3)cnc1N` [Compound 92, N-(6-amino-5-ethylpyridin-3-yl)-2-((2R,5S)-5-methyl-2-(1′-methylspiro[benzo[d][1,3]dioxole-2,4′-piperidin]-5-yl)piperidin-1-yl)-2-oxoacetamide]: the concentration for half-maximal inhibition (IC50) in assay [1] (Homo sapiens) is above 50 nM; in assay [2] (Homo sapiens), 5 to 50 nM; in assay [3] (Homo sapiens, 168 h), below 100 nM. The IC90 in assay [2] (Homo sapiens) was 75 to 125 nM. Moreover, in assay [2], the “Hap1 MTAP intact/deleted ratio” value is recorded as “A (“A” indicates an IC50 ratio greater than or equal to 30 fold)”.
With `CCc1cc(NC(=O)C(=O)N2C[C@@H](C)CC[C@@H]2c2ccc3nn(CCN(C)C)cc3c2)cnc1N` [Compound 72], the IC50 in assay [1] (Homo sapiens, HAP1, 24 h) is above 50 nM; in assay [2] (Homo sapiens), 5 to 50 nM; in assay [3] (Homo sapiens, 168 h), below 100 nM. This compound gave an IC90 in assay [2] (Homo sapiens) above 125 nM. The “Hap1 MTAP intact/deleted ratio” value in assay [2] was “A (“A” indicates an IC50 ratio greater than or equal to 30 fold)”.
For the compound `CCc1cc(NC(=O)C(=O)N2C[C@@H](C)CC[C@@H]2c2ccc(F)c(OCCN(C)C)c2)cnc1N` [Compound 128, N-(6-amino-5-ethylpyridin-3-yl)-2-((2R,5S)-2-(3-(2-(dimethylamino)ethoxy)-4-fluorophenyl)-5-methylpiperidin-1-yl)-2-oxoacetamide], the IC50 was above 50 nM in assay [1] (Homo sapiens, HAP1, 24 h); 5 to 50 nM in assay [2] (Homo sapiens); below 100 nM in assay [3] (Homo sapiens, 168 h). In assay [2] (Homo sapiens), this compound registered an IC90 above 125 nM. Moreover, the “Hap1 MTAP intact/deleted ratio” value in assay [2] is given as “A (“A” indicates an IC50 ratio greater than or equal to 30 fold)”.
The corresponding values for `CCc1cc(NC(=O)C(=O)N2C[C@@H](C)CC[C@@H]2c2ccc3ccc(C#N)nc3c2)cnc1N` [Compound 32, N-(6-amino-5-ethylpyridin-3-yl)-2-((2R,5S)-2-(2-cyanoquinolin-7-yl)-5-methylpiperidin-1-yl)-2-oxoacetamide] are above 50 nM, 5 to 50 nM, 100 to 1000 nM, above 125 nM and “A (“A” indicates an IC50 ratio greater than or equal to 30 fold)”.
For the compound `COc1ncc(NC(=O)C(=O)N2C[C@@H](C)CC[C@@H]2c2ccc3sc(C45CCN(CC4)C5)nc3c2)cc1C(N)=O` [Compound 81, 5-(2-((2R,5S)-2-(2-(1-azabicyclo[2.2.1]heptan-4-yl)benzo[d]thiazol-5-yl)-5-methylpiperidin-1-yl)-2-oxoacetamido)-2-methoxynicotinamide], the IC50 was above 50 nM in assay [1] (Homo sapiens, HAP1, 24 h); below 5 nM in assay [2] (Homo sapiens); below 100 nM in assay [3] (Homo sapiens, 168 h). The IC90 in assay [2] (Homo sapiens) was below 75 nM. In assay [2], the “Hap1 MTAP intact/deleted ratio” value is reported as “A (“A” indicates an IC50 ratio greater than or equal to 30 fold)”.
In the same order, the values of `CCc1cc(NC(=O)C(=O)N2C[C@@H](C)CC[C@@H]2c2ccc3sc([C@H]4C[C@H](C)CN(C)C4)nc3c2)cnc1N` (single isomer, unassigned) [Compound 75] are above 50 nM, 5 to 50 nM, below 100 nM, below 75 nM and “B (“B” indicates an IC50 ratio greater than or equal to 15 fold but lower than 30 fold)”.
With `COc1ncc(NC(=O)C(=O)N2C[C@@H](C)CC[C@@H]2c2ccc3sc([C@@H]4C[C@@H](C)CN(C)C4)nc3c2)cc1C(N)=O` (racemic) [Compound 94, 5-(2-((2R,5S)-2-(2-(1,5-dimethylpiperidin-3-yl)benzo[d]thiazol-5-yl)-5-methylpiperidin-1-yl)-2-oxoacetamido)-2-methoxynicotinamide], the IC50 in assay [1] (Homo sapiens, HAP1, 24 h) was above 50 nM; in assay [2] (Homo sapiens) it was below 5 nM; in assay [3] (Homo sapiens, 168 h), below 100 nM. In assay [2] (Homo sapiens), this compound showed a 90% effect concentration (IC90) below 75 nM. Further, the “Hap1 MTAP intact/deleted ratio” value in assay [2] was “A (“A” indicates an IC50 ratio greater than or equal to 30 fold)”.
The corresponding values for `CCc1cc(NC(=O)C(=O)N2C[C@@H](C)CC[C@@H]2c2ccc3cc(C4CCN(C)CC4)cnc3c2)cnc1N` [Compound 95, N-(6-amino-5-ethylpyridin-3-yl)-2-((2R,5S)-5-methyl-2-(3-(1-methylpiperidin-4-yl)quinolin-7-yl)piperidin-1-yl)-2-oxoacetamide] are 5 to 50 nM, below 5 nM, below 100 nM, below 75 nM and “B (“B” indicates an IC50 ratio greater than or equal to 15 fold but lower than 30 fold)”.
As for `COc1ncc(NC(=O)C(=O)N2C[C@@H](C)CC[C@@H]2c2ccc3sc(C[C@H]4CCN(C)C[C@@H]4C)nc3c2)cc1C(N)=O` (racemic) [Compound 64, 5-(2-((2R,5S)-2-(2-((1,3-dimethylpiperidin-4-yl)methyl)benzo[d]thiazol-5-yl)-5-methylpiperidin-1-yl)-2-oxoacetamido)-2-methoxynicotinamide], the 50% inhibitory concentration (IC50) in assay [1] (Homo sapiens, HAP1, 24 h) is above 50 nM; in assay [2] (Homo sapiens) it was below 5 nM; in assay [3] (Homo sapiens, 168 h), below 100 nM. Moreover, in assay [2] (Homo sapiens), the concentration for an effect of 90% (IC90) is below 75 nM. Besides, the “Hap1 MTAP intact/deleted ratio” value in assay [2] was “A (“A” indicates an IC50 ratio greater than or equal to 30 fold)”.
In the same order, the values of `CCc1cc(NC(=O)C(=O)N2C[C@@H](C)CC[C@@H]2c2ccc3c(C)n(C4CCN(C)CC4)nc3c2)cnc1N` [Compound 19, N-(6-amino-5-ethyl-3-pyridyl)-2-oxo-2-[(2R,5S)-5-methyl-2-[3-methyl-2-(1-methyl-4-piperidyl)indazol-6-yl]-1-piperidyl]acetamide] are above 50 nM, below 5 nM, below 100 nM, below 75 nM and “A (“A” indicates an IC50 ratio greater than or equal to 30 fold)”.
In the same order, the values of `CCc1cc(NC(=O)C(=O)N2C[C@@H](C)CC[C@@H]2c2ccc3cn(C4CCCN(C)C4)nc3c2)cnc1N` (single isomer, unassigned) [Compound 80] are 5 to 50 nM, below 5 nM, below 100 nM, below 75 nM and “C (“C” indicates an IC50 ratio of less than 15 fold)”.
On to `CCc1cc(NC(=O)C(=O)N2C[C@@H](C)CC[C@@H]2c2ccc3sc([C@@H]4CN(C)CC(C)(C)C4)nc3c2)cnc1N` (single isomer, unassigned) [Compound 105], for which the IC50 in assay [1] (Homo sapiens, HAP1, 24 h) was above 50 nM; in assay [2] (Homo sapiens), below 5 nM; in assay [3] (Homo sapiens, 168 h) it was below 100 nM. For the same compound, the IC90 in assay [2] (Homo sapiens) is below 75 nM. The “Hap1 MTAP intact/deleted ratio” value in assay [2] is on record as “A (“A” indicates an IC50 ratio greater than or equal to 30 fold)”.
In the same order, the values of `CCc1cc(NC(=O)C(=O)N2C[C@@H](C)CC[C@@H]2c2cccc(OC3CCN(C)C3)c2)cnc1N` (mixture of isomers) [Compound 39, N-(6-amino-5-ethylpyridin-3-yl)-2-((2R,5S)-5-methyl-2-(3-((1-methylpyrrolidin-3-yl)oxy)phenyl)piperidin-1-yl)-2-oxoacetamide] are above 50 nM, 5 to 50 nM, below 100 nM, 75 to 125 nM and “A (“A” indicates an IC50 ratio greater than or equal to 30 fold)”.
